Results: BindingDB's records for doi:10.1021/jm5002502 (St. John'S University, 2014)

Target: Poly [ADP-ribose] polymerase 1 (Homo sapiens, UniProt P09874)
Assay: Inhibition of PARP-1 (unknown origin) using biotinylated NAD+ as substrate after 60 mins by spectrophotometry

Poly [ADP-ribose] polymerase 1, sequence (P09874 whole entry): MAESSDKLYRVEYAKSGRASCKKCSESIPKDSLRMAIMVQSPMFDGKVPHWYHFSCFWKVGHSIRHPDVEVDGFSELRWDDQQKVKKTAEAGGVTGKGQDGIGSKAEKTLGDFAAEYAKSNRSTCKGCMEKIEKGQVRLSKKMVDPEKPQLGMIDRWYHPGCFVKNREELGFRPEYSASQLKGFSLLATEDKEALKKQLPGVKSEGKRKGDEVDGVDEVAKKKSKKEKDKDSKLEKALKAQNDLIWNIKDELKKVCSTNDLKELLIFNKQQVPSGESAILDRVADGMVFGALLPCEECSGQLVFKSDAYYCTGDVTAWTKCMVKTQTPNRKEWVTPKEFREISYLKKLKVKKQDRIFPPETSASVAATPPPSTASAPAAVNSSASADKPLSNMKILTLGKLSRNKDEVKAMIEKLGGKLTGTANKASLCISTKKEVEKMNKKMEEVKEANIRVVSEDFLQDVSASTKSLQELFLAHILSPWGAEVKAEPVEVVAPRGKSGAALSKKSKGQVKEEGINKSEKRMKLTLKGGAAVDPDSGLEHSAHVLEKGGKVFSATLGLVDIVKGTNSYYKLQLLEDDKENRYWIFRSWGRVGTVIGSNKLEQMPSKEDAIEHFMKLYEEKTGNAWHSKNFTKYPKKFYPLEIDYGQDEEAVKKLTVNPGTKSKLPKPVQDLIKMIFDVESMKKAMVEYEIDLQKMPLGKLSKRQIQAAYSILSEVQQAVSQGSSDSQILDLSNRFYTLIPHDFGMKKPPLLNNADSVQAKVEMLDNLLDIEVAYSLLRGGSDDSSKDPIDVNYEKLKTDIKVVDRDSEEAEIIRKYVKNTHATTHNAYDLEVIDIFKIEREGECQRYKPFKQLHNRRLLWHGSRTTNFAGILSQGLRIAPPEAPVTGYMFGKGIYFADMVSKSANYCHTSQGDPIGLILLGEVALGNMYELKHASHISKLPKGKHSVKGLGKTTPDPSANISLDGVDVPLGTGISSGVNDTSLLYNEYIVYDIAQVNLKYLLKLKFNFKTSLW

IC50: 4.65 µM
SMILES: CC1Cc2c(N)ccc(C(N)=O)c2O1 (stereo unspecified)
